Experimental data from patent publication US20240116985A1, “STAPLED PEPTIDES AND METHODS THEREOF” (priority 2020, published 2024).

Experiment: CHI Log D procedure
Assay type: physicochemical
Conditions: for chromatographic logD: pH 7.4, CHI Log D; for CHI Log D: pH 7.4

Row | chromatographic logD | CHI Log D | Structure (SMILES)
1 | 1.15 | – | CC(=O)N[C@@H](Cc1ccccc1)C(=O)N[C@@H](CC(=O)O)C(=O)N[C@@H](C)C(=O)N[C@]1(C)CCCCCCC=CCOC(=O)N2CC[C@@](C(=O)N[C@@H](Cc3ccccc3)C(=O)N[C@@H](Cc3c[nH]c4ccccc34)C(=O)N[C@@H](CCC(N)=O)C(N)=O)(C2)NC(=O)[C@H](C(C)C)NC(=O)[C@H](Cc2cccc(C(N)=O)c2)NC(=O)[C@H](C)NC(=O)[C@H](C)NC(=O)[C@H](CC(=O)O)NC(=O)[C@H](CC(=O)O)NC1=O (single isomer, unassigned) [I-108, Ac-Phe-Asp-Ala-R8-Asp-Asp-Ala-Ala-3CBMF-Val-PyrS-Phe-Trp-Gln-NH2]
2 | 1.4 | – | CC(=O)N[C@@H](Cc1ccccc1)C(=O)N[C@@H](CC(=O)O)C(=O)N[C@@H](C)C(=O)N[C@]1(C)CCCCCCC=CCOC(=O)N2CC[C@@](C(=O)N[C@@H](Cc3ccccc3)C(=O)N[C@@H](Cc3c[nH]c4ccccc34)C(=O)N[C@@H](CCC(N)=O)C(N)=O)(C2)NC(=O)[C@H](C(C)C)NC(=O)[C@H](Cc2ccc3ccccc3c2)NC(=O)[C@H](C)NC(=O)[C@H](C)NC(=O)[C@H](CC(=O)O)NC(=O)[C@H](CC(=O)O)NC1=O (single isomer, unassigned) [I-112, Ac-Phe-Asp-Ala-R8-Asp-Asp-Ala-Ala-2NapA-Val-PyrS-Phe-Trp-Gln-NH2]
3 | 1.33 | – | CC(=O)N[C@@H](Cc1ccccc1)C(=O)N[C@@H](CC(=O)O)C(=O)N[C@@H](C)C(=O)N[C@]1(C)CCCCCCC=CCOC(=O)N2CC[C@@](C(=O)N[C@@H](Cc3ccccc3)C(=O)N[C@@H](Cc3c[nH]c4ccccc34)C(=O)N[C@@H](CCC(N)=O)C(N)=O)(C2)NC(=O)[C@H](C(C)C)NC(=O)[C@H](CCc2ccccc2)NC(=O)[C@H](C)NC(=O)[C@H](C)NC(=O)[C@H](CC(=O)O)NC(=O)[C@H](CC(=O)O)NC1=O (single isomer, unassigned) [I-117, Ac-Phe-Asp-Ala-R8-Asp-Asp-Ala-Ala-hPhe-Val-PyrS-Phe-Trp-Gln-NH2]
4 | 0.84 | – | CC(=O)N[C@@H](Cc1ccccc1)C(=O)N[C@@H](CC(=O)O)C(=O)N[C@@H](C)C(=O)N[C@]1(C)CCCCCCC=CCOC(=O)N2CC[C@@](C(=O)N[C@@H](CC(=O)O)C(=O)N[C@@H](Cc3c[nH]c4ccccc34)C(=O)N[C@@H](CCC(N)=O)C(N)=O)(C2)NC(=O)[C@H](C(C)C)NC(=O)[C@H](Cc2ccccc2)NC(=O)[C@H](C)NC(=O)[C@H](C)NC(=O)[C@H](CC(=O)O)NC(=O)[C@H](CC(=O)O)NC1=O (single isomer, unassigned) [I-122, Ac-Phe-Asp-Ala-R8-Asp-Asp-Ala-Ala-Phe-Val-PyrS-Asp-Trp-Gln-NH2]
5 | 1.81 | – | CCCC[C@@H]1NC(=O)[C@H](CC(=O)O)NC(=O)C2(CCCC=CCCCCCC[C@@](C)(C(=O)N[C@@H](Cc3ccccc3)C(=O)N[C@@H](Cc3c[nH]c4ccccc34)C(=O)N[C@@H](CCC(N)=O)C(N)=O)NC(=O)[C@H](C(C)C)NC(=O)[C@H](Cc3ccccc3)NC(=O)[C@H](C)NC(=O)[C@H](C)NC1=O)CCCC=CC[C@]1(CCCN1C(C)=O)C(=O)N[C@@H](CC(=O)O)C(=O)N[C@@H](C)C(=O)N2 (single isomer, unassigned) [I-138, Ac-PL3-Asp-Ala-B5-Asp-nLeu-Ala-Ala-Phe-Val-S8-Phe-Trp-Gln-NH2]
6 | – | 2.834 | CCCC[C@@H]1NC(=O)[C@H](CC(=O)O)NC(=O)C2(CCCC=CCCCCCC[C@@](C)(C(=O)N[C@@H](Cc3ccccc3)C(=O)N[C@@H](Cc3c[nH]c4ccccc34)C(=O)N[C@@H](CCC(N)=O)C(N)=O)NC(=O)[C@H](C(C)C)NC(=O)[C@H](Cc3ccccc3)NC(=O)[C@H](C)NC(=O)[C@H](C)NC1=O)CCCC=CC[C@]1(CCCN1C(C)=O)C(=O)N[C@@H](CC(=O)O)C(=O)N[C@@H](C)C(=O)N2 (single isomer, unassigned) [I-139, Ac-PL3-Asp-Ala-B5-Asp-nLeu-Ala-Ala-Phe-Val-S8-Phe-Trp-Gln-NH2]
7 | 0.816 | – | CC(=O)N[C@@H](Cc1ccccc1)C(=O)N[C@@H](CC(=O)O)C(=O)N[C@@H](C)C(=O)N[C@]1(C)CCCCCCC=CCOC(=O)N2CC[C@@](C(=O)N[C@@H](CCC(=O)O)C(=O)N[C@@H](Cc3c[nH]c4ccccc34)C(=O)N[C@@H](CCC(N)=O)C(N)=O)(C2)NC(=O)[C@H](C(C)C)NC(=O)[C@H](Cc2ccccc2)NC(=O)[C@H](C)NC(=O)[C@H](C)NC(=O)[C@H](CC(=O)O)NC(=O)[C@H](CC(=O)O)NC1=O (single isomer, unassigned) [I-161, Ac-Phe-Asp-Ala-R8-Asp-Asp-Ala-Ala-Phe-Val-PyrS-Glu-Trp-Gln-NH2]
8 | – | 0.827 | CC(=O)N[C@@H](Cc1ccccc1)C(=O)N[C@@H](CC(=O)O)C(=O)N[C@@H](C)C(=O)N[C@]1(C)CCCCCCC=CCOC(=O)N2CC[C@@](C(=O)N[C@@H](CCC(=O)O)C(=O)N[C@@H](Cc3c[nH]c4ccccc34)C(=O)N[C@@H](CCC(N)=O)C(N)=O)(C2)NC(=O)[C@H](C(C)C)NC(=O)[C@H](Cc2ccccc2)NC(=O)[C@H](C)NC(=O)[C@H](C)NC(=O)[C@H](CC(=O)O)NC(=O)[C@H](CC(=O)O)NC1=O (single isomer, unassigned) [I-162, Ac-Phe-Asp-Ala-R8-Asp-Asp-Ala-Ala-Phe-Val-PyrS-Glu-Trp-Gln-NH2]
9 | 2.87 | – | CC(=O)N1CCC[C@]12CC=CCCCC1(CCCC=CCCCCCC[C@@](C)(C(=O)N[C@@H](Cc3ccccc3)C(=O)N[C@@H](Cc3c[nH]c4ccccc34)C(=O)N[C@@H](CCC(N)=O)C(N)=O)NC(=O)[C@H](C(C)C)NC(=O)[C@H](Cc3ccccc3)NC(=O)[C@H](C)NC(=O)[C@H](C)NC(=O)[C@@](C)(CC(C)C)NC(=O)[C@H](CC(=O)O)NC1=O)NC(=O)[C@H](C)NC(=O)[C@H](CC(=O)O)NC2=O (single isomer, unassigned) [I-215, Ac-PL3-Asp-Ala-B5-Asp-DaMeL-Ala-Ala-Phe-Val-S8-Phe-Trp-Gln-NH2]
10 | – | 2.867 | CC(=O)N1CCC[C@]12CC=CCCCC1(CCCC=CCCCCCC[C@@](C)(C(=O)N[C@@H](Cc3ccccc3)C(=O)N[C@@H](Cc3c[nH]c4ccccc34)C(=O)N[C@@H](CCC(N)=O)C(N)=O)NC(=O)[C@H](C(C)C)NC(=O)[C@H](Cc3ccccc3)NC(=O)[C@H](C)NC(=O)[C@H](C)NC(=O)[C@@](C)(CC(C)C)NC(=O)[C@H](CC(=O)O)NC1=O)NC(=O)[C@H](C)NC(=O)[C@H](CC(=O)O)NC2=O (single isomer, unassigned) [I-216, Ac-PL3-Asp-Ala-B5-Asp-DaMeL-Ala-Ala-Phe-Val-S8-Phe-Trp-Gln-NH2]
11 | 2.13 | – | CC(=O)N1CCC[C@]12CC=CCCCC1(CCCC=CCCCCCC[C@@](C)(C(=O)N[C@@H](Cc3ccc(Cl)cc3)C(=O)N[C@@H](Cc3c[nH]c4ccccc34)C(=O)N[C@@H](CCC(N)=O)C(N)=O)NC(=O)[C@H](C(C)C)NC(=O)[C@H](Cc3ccccc3)NC(=O)[C@H](C)NC(=O)[C@H](C)NC(=O)[C@H](CC(=O)O)NC(=O)[C@H](CC(=O)O)NC1=O)NC(=O)[C@H](C)NC(=O)[C@H](CC(=O)O)NC2=O (single isomer, unassigned) [I-312, Ac-PL3-Asp-Ala-B5-Asp-Asp-Ala-Ala-Phe-Val-S8-4C1F-Trp-Gln-NH2]
